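96-well plates; 48 h exposure; 5 concentrations. Endpoints by linear interpolation between flanking doses. Not reached: highest tested concentration assigned. Here, GI50 denotes the concentration required for 50% inhibition of growth. The concentration for full growth arrest is given as TGI.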
Columns and labels:
Experiment in all cases: NCI tumour cell line growth inhibition, 48 h
UACC-62 melanoma = system: UACC-62 melanoma
ACHN renal = system: ACHN renal
A549 NSCLC = system: A549 NSCLC
EKVX NSCLC = system: EKVX NSCLC
CAKI-1 renal = system: CAKI-1 renal
HL-60(TB) leukemia = system: HL-60(TB) leukemia
BT-549 breast = system: BT-549 breast
NCI-H226 lung = system: NCI-H226 lung
HT29 colon = system: HT29 colon
CCRF-CEM leukemia = system: CCRF-CEM leukemia
NCI-H522 lung = system: NCI-H522 lung
SF-295 CNS = system: SF-295 CNS
SK-MEL-2 melanoma = system: SK-MEL-2 melanoma
SK-MEL-5 melanoma = system: SK-MEL-5 melanoma
SF-268 CNS = system: SF-268 CNS
K-562 leukemia = system: K-562 leukemia
SW-620 colon = system: SW-620 colon
HCC-2998 colon = system: HCC-2998 colon
SN12C renal = system: SN12C renal
HOP-62 NSCLC = system: HOP-62 NSCLC
OVCAR-4 ovarian = system: OVCAR-4 ovarian
A498 renal = system: A498 renal
NCI-H23 lung = system: NCI-H23 lung
MCF7 breast = system: MCF7 breast
NCI-H460 lung = system: NCI-H460 lung
HCT-15 colon = system: HCT-15 colon
NCI/ADR-RES ovarian = system: NCI/ADR-RES ovarian
MDA-MB-231 breast = system: MDA-MB-231 breast
SK-MEL-28 melanoma = system: SK-MEL-28 melanoma
TK-10 renal = system: TK-10 renal
RXF 393 renal = system: RXF 393 renal
UACC-257 melanoma = system: UACC-257 melanoma
HOP-92 NSCLC = system: HOP-92 NSCLC
COLO 205 colon = system: COLO 205 colon
OVCAR-5 ovarian = system: OVCAR-5 ovarian
OVCAR-8 ovarian = system: OVCAR-8 ovarian
LOX IMVI melanoma = system: LOX IMVI melanoma
PC-3 prostate = system: PC-3 prostate
MDA-MB-435 = system: MDA-MB-435
RPMI-8226 leukemia = system: RPMI-8226 leukemia
HCT-116 colon = system: HCT-116 colon
KM12 colon = system: KM12 colon
OVCAR-3 ovarian = system: OVCAR-3 ovarian
SF-539 CNS = system: SF-539 CNS
MOLT-4 leukemia = system: MOLT-4 leukemia
786-0 renal = system: 786-0 renal
UO-31 renal = system: UO-31 renal
DU-145 prostate = system: DU-145 prostate
U251 CNS = system: U251 CNS
M14 melanoma = system: M14 melanoma
HS 578T breast = system: HS 578T breast
SK-OV-3 ovarian = system: SK-OV-3 ovarian

Q: Which GI50 (UACC-62 melanoma) does the source give for O=C1c2cc3c(cc2-c2c1c1ccc(Cl)cc1c(=O)n2CCCNCCO)OCO3 here?
A: 42.7 nM

Q: And the TGI (UACC-62 melanoma)?
A: 1600 nM

Q: What about the GI50 (ACHN renal) of the same compound?
A: 38.3 nM

Q: What about the TGI (ACHN renal) of the same compound?
A: 1440 nM

Q: What about the GI50 (A549 NSCLC) of the same compound?
A: 115 nM

Q: What about the TGI (A549 NSCLC) of the same compound?
A: 2380 nM

Q: What about the GI50 (EKVX NSCLC) of the same compound?
A: 1630 nM

Q: What about the TGI (EKVX NSCLC) of the same compound?
A: 3420 nM

Q: What about the GI50 (CAKI-1 renal) of the same compound?
A: 68.4 nM

Q: And the TGI (CAKI-1 renal)?
A: 2290 nM

Q: What about the GI50 (HL-60(TB) leukemia) of the same compound?
A: 36.7 nM

Q: And the TGI (HL-60(TB) leukemia)?
A: 1080 nM

Q: And the GI50 (BT-549 breast)?
A: 941 nM

Q: What about the TGI (BT-549 breast) of the same compound?
A: 2490 nM

Q: And the GI50 (NCI-H226 lung)?
A: 52 nM

Q: And the TGI (NCI-H226 lung)?
A: 1550 nM

Q: And the GI50 (HT29 colon)?
A: 135 nM

Q: And the TGI (HT29 colon)?
A: 2020 nM

Q: And the GI50 (CCRF-CEM leukemia)?
A: 34.7 nM

Q: And the TGI (CCRF-CEM leukemia)?
A: 1000 nM

Q: And the GI50 (NCI-H522 lung)?
A: 37.2 nM

Q: And the TGI (NCI-H522 lung)?
A: 1580 nM

Q: And the GI50 (SF-295 CNS)?
A: 37.8 nM

Q: What about the TGI (SF-295 CNS) of the same compound?
A: 1380 nM

Q: And the GI50 (SK-MEL-2 melanoma)?
A: 1970 nM

Q: What about the TGI (SK-MEL-2 melanoma) of the same compound?
A: 3540 nM

Q: And the GI50 (SK-MEL-5 melanoma)?
A: 387 nM

Q: What about the TGI (SK-MEL-5 melanoma) of the same compound?
A: 1580 nM

Q: What about the GI50 (SF-268 CNS) of the same compound?
A: 66.8 nM

Q: What about the TGI (SF-268 CNS) of the same compound?
A: 2130 nM

Q: And the GI50 (K-562 leukemia)?
A: 108 nM

Q: What about the TGI (K-562 leukemia) of the same compound?
A: 355 nM

Q: What about the GI50 (SW-620 colon) of the same compound?
A: 50.6 nM

Q: And the TGI (SW-620 colon)?
A: 366 nM

Q: What about the GI50 (HCC-2998 colon) of the same compound?
A: 1150 nM

Q: And the TGI (HCC-2998 colon)?
A: 2460 nM

Q: And the GI50 (SN12C renal)?
A: 1080 nM

Q: What about the TGI (SN12C renal) of the same compound?
A: 2810 nM

Q: And the GI50 (HOP-62 NSCLC)?
A: 71.4 nM

Q: And the TGI (HOP-62 NSCLC)?
A: 1730 nM

Q: What about the GI50 (OVCAR-4 ovarian) of the same compound?
A: 1480 nM

Q: What about the TGI (OVCAR-4 ovarian) of the same compound?
A: 3320 nM

Q: And the GI50 (A498 renal)?
A: 1270 nM

Q: And the TGI (A498 renal)?
A: 2650 nM

Q: And the GI50 (NCI-H23 lung)?
A: 55.3 nM

Q: And the TGI (NCI-H23 lung)?
A: 1430 nM

Q: And the GI50 (MCF7 breast)?
A: 17.6 nM

Q: What about the TGI (MCF7 breast) of the same compound?
A: 179 nM

Q: And the GI50 (NCI-H460 lung)?
A: 34.2 nM

Q: And the TGI (NCI-H460 lung)?
A: 1340 nM

Q: What about the GI50 (HCT-15 colon) of the same compound?
A: 677 nM

Q: What about the TGI (HCT-15 colon) of the same compound?
A: 2250 nM

Q: And the GI50 (NCI/ADR-RES ovarian)?
A: 58.5 nM

Q: And the TGI (NCI/ADR-RES ovarian)?
A: 1900 nM

Q: And the GI50 (MDA-MB-231 breast)?
A: 1730 nM

Q: What about the TGI (MDA-MB-231 breast) of the same compound?
A: 3490 nM

Q: And the GI50 (SK-MEL-28 melanoma)?
A: 1430 nM

Q: And the TGI (SK-MEL-28 melanoma)?
A: 3260 nM

Q: And the GI50 (TK-10 renal)?
A: 1500 nM

Q: What about the TGI (TK-10 renal) of the same compound?
A: 2940 nM

Q: And the GI50 (RXF 393 renal)?
A: 926 nM

Q: And the TGI (RXF 393 renal)?
A: 2590 nM

Q: And the GI50 (UACC-257 melanoma)?
A: 666 nM

Q: What about the TGI (UACC-257 melanoma) of the same compound?
A: 2430 nM

Q: And the GI50 (HOP-92 NSCLC)?
A: 1080 nM

Q: What about the TGI (HOP-92 NSCLC) of the same compound?
A: 2570 nM

Q: What about the GI50 (COLO 205 colon) of the same compound?
A: 1090 nM

Q: And the TGI (COLO 205 colon)?
A: 2600 nM

Q: What about the GI50 (OVCAR-5 ovarian) of the same compound?
A: 1710 nM

Q: What about the TGI (OVCAR-5 ovarian) of the same compound?
A: 3710 nM

Q: What about the GI50 (OVCAR-8 ovarian) of the same compound?
A: 476 nM

Q: What about the TGI (OVCAR-8 ovarian) of the same compound?
A: 2590 nM

Q: And the GI50 (LOX IMVI melanoma)?
A: 46.7 nM

Q: What about the TGI (LOX IMVI melanoma) of the same compound?
A: 1300 nM

Q: What about the GI50 (PC-3 prostate) of the same compound?
A: 1070 nM

Q: And the TGI (PC-3 prostate)?
A: 2550 nM

Q: And the GI50 (MDA-MB-435)?
A: 1030 nM

Q: And the TGI (MDA-MB-435)?
A: 2490 nM

Q: What about the GI50 (RPMI-8226 leukemia) of the same compound?
A: 145 nM

Q: And the TGI (RPMI-8226 leukemia)?
A: 3270 nM

Q: And the GI50 (HCT-116 colon)?
A: 104 nM

Q: What about the TGI (HCT-116 colon) of the same compound?
A: 588 nM

Q: What about the GI50 (KM12 colon) of the same compound?
A: 1170 nM

Q: What about the TGI (KM12 colon) of the same compound?
A: 2610 nM

Q: What about the GI50 (OVCAR-3 ovarian) of the same compound?
A: 1320 nM

Q: And the TGI (OVCAR-3 ovarian)?
A: 2830 nM

Q: What about the GI50 (SF-539 CNS) of the same compound?
A: 242 nM

Q: And the TGI (SF-539 CNS)?
A: 1350 nM

Q: What about the GI50 (MOLT-4 leukemia) of the same compound?
A: 31 nM

Q: And the TGI (MOLT-4 leukemia)?
A: 512 nM

Q: And the GI50 (786-0 renal)?
A: 119 nM

Q: And the TGI (786-0 renal)?
A: 278 nM

Q: And the GI50 (UO-31 renal)?
A: 60.8 nM

Q: And the TGI (UO-31 renal)?
A: 1870 nM

Q: What about the GI50 (DU-145 prostate) of the same compound?
A: 59 nM

Q: And the TGI (DU-145 prostate)?
A: 1680 nM

Q: What about the GI50 (U251 CNS) of the same compound?
A: 40.3 nM

Q: And the TGI (U251 CNS)?
A: 1400 nM

Q: What about the GI50 (M14 melanoma) of the same compound?
A: 57.4 nM

Q: What about the TGI (M14 melanoma) of the same compound?
A: 1670 nM

Q: What about the GI50 (HS 578T breast) of the same compound?
A: 1730 nM

Q: What about the TGI (HS 578T breast) of the same compound?
A: 4000 nM

Q: And the GI50 (SK-OV-3 ovarian)?
A: 212 nM

Q: And the TGI (SK-OV-3 ovarian)?
A: 1740 nM
